From patent US20120135997A1, “PHARMACEUTICAL COMPOSITION COMPRISING A LACTAM OR BENZENESULFONAMIDE COMPOUND” (Shionogi & Co., Ltd., priority 2009, published 2012)
Values belong to the molecule of their own block, whether it stands above or below them.

What was measured:
Aβ42 production = assay: Suppressive activity of Aβ42 production in neuroblast expressing human APP695 (ELISA of secreted Aβ42); assay type: cell-based; conditions: secreted Aβ42, SH-SY5Y-APPwt cells, 24 hours
Procedure: Dose dependent effect of each test compound was evaluated by measurement of secreted Aβ42 and cell viability in SH-SY5Y-APPwt cells. Secreted Aβ42 was quantified by an ELISA assay and cell viability was measured using a cell count reagent.
SH-SY5Y-APPwt cells were generated from human SH-SY5Y neuroblast by transfection of human APP695 DNA as a stable cell-line and cultured in DMEM supplemented with 10% FCS.
SH-SY5Y-APPwt cells were plated at 1.2×10^5 cells/well/150 μl in 96-well plates. A solution of the test compound in DMSO was diluted with DMEM to a concentration 4-fold higher than the final concentration. 50 μl of the diluted solution was sufficiently mixed with the cells and the final DMEM solution was 200 μl/well. The final DMSO concentration was 1%. As a control compound, a γ-secretase inhibitor, DAPT (Calbiochem) was used. 24 hours after, the culture supernatant was collected and appropriately diluted for ELISA quantification of Aβ42. Cells were used for cell viability assay.
Human/Rat β Amyloid(42) ELISA Kit WAKO (WAKO Pure Chemical Industries) was used for ELISA. ELISA was carried out according to the protocols recommended by the manufacturer's instructions. The results were shown as percentage to the Aβ concentration in the medium of control group (% of Control) and then IC50 values of each test compounds were calculated. Cell viability was measured using Cell Count Reagent SF (NACALAI TESQUE) according to the protocols recommended by the manufacturer's instructions. The results were shown as percentage to cell viability of control group (% of Control) and reduction of cell viability was not seen.

CYP3A4 = CYP3A4 (Homo sapiens, UniProt P08684); assay: CYP3A4 fluorescent MBI test; assay type: in vitro ADME; design: host or cells: E. coli; conditions: E. coli-expressing CYP3A4, substrate 7-BFC, pre-reaction 0 or 30 minutes
Procedure: The CYP3A4 fluorescent MBI test is a test to examine enhancement of CYP3A4 inhibition by metabolic reaction of the compound. Here, E. coli-expressing CYP3A4 was used as an enzyme, and a reaction wherein 7-benzyloxy trifluoromethylcumarin (BFC) was debenzylated by the CYP3A4 enzyme into a fluorescent metabolite 7-hydroxytrifluoromethylcumarin (HFC) was employed as an indicator reaction.
The reaction conditions are as follows.
Substrate: […] 7-BFC; Pre-reaction time: 0 or 30 minutes; Reaction time: 15 minutes; Reaction temperature: 25° C. […]
The enzyme and a test compound solution are added to a K-Pi buffer (pH 7.4) in the aforementioned amounts for the pre-reaction so that a pre-reaction solution is prepared, and this solution is put into a 96-well plate. […] With respect to each of the plates on which the indicator reaction is performed, the fluorescence value of the metabolite 7-HFC is measured with a fluorescence plate reader (Ex=420 nm, Em=535 nm).
Control (100%) is prepared by adding only DMSO, a solvent to dissolve the test compound, to the reaction system. The remaining activity (%) at each concentration after adding the test compound solution is calculated, and the IC50 value is calculated from the concentration and inhibition percentage by inverse estimation with the logistic model. […]

hERG channel (IKr) = biological target: T1, hERG channel (IKr) (Homo sapiens, UniProt Q12809); assay: hERG test (whole-cell patch clamp, IKr); assay type: cell-based; conditions: HEK293 cells that express hERG, pH 7.4, HEK293 cell expressing hERG, room temperature, concentration not given, read-out: inhibitory percentage relative to the maximum tail current (IKr)
T1 construct: expressed in transfected cells; host or cells: HEK293
Excerpt: For the purpose of risk assessment for QT prolongation on an electrocardiogram, the action on delayed rectifier K+ current (IKr) which plays an important role on a process of ventricular repolarization is studied using a HEK293 cell with a human ether-a-go-go related gene (hERG) channel expressed therein.
A cell is maintained at a membrane potential of −80 mV, and then +50 mV of a depolarizing stimulus is applied to the cell for 2 seconds and further −50 mV of a repolarizing stimulus is applied thereto for 2 seconds by a whole-cell patch clamp technique with a fully-automatic patch clamp system (PatchXpress 7000A, Axon Instruments Inc.), and the induced IKr is recorded. As the current generated is stabilized, an extracellular fluid with the test compound dissolved therein at a target concentration (NaCl: 137 mmol/L, KCl: 4 mmol/L, CaCl2.2H2O: 1.8 mmol/L, MgCl2.6H2O: 1 mmol/L, glucose: 10 mmol/L, HEPES (4-(2-hydroxyethyl)-1-piperazineethanesulfonic acid): 10 mmol/L, pH=7.4) is applied to the cell for 10 minutes under room temperature conditions. The absolute value of the maximum tail current is determined from the obtained IKr with an analysis software (DataXpress ver. 1, Molecular Devices Corporation) based on a current value at a maintained membrane potential. Further, an inhibitory percentage relative to the maximum tail current before application of the test compound is calculated, and influence of the test compound on IKr is evaluated in comparison with the medium application group (0.1% dimethyl sulfoxide solution).

Solubility test = assay type: physicochemical; conditions: kinetic from dmso stock; 1% DMSO, artificial intestinal juice pH 6.8, 16 hours at 25° C.
Procedure: The solubility of each compound is determined under 1% DMSO addition conditions. A 10 mM solution of the compound is prepared with DMSO, and 6 μL of the compound solution is added to 594 μL of an artificial intestinal juice (water and 118 mL of 0.2 mol/L NaOH reagent are added to 250 mL of 0.2 mol/L potassium dihydrogen phosphate reagent to reach 1000 mL) with a pH of 6.8. The mixture is left standing for 16 hours at 25° C., and the mixture is vacuum-filtered. The filtrate is two-fold diluted with methanol/water=1/1, and the compound concentration in the filtrate is measured with HPLC or LC/MS/MS by the absolute calibration method.

Metabolic stability test = assay type: in vitro ADME; conditions: human liver microsomes 0.5 mg protein/mL, 1 mmol/L NADPH, 30 minutes at 37° C.
Procedure: The test compound is reacted with commercially available pooled human liver microsomes for a predetermined time period. The residual rate is calculated by comparing the reacted sample and unreacted sample, and thus the degree of metabolism in liver is evaluated. In 0.2 mL of a buffer (50 mmol/L tris-HCl pH 7.4, 150 mmol/L potassium chloride, 10 mmol/L magnesium chloride) containing human liver microsomes 0.5 mg protein/mL, reaction is carried out in the presence of 1 mmol/L NADPH for 0 minute or 30 minutes at 37° C. (oxidative reaction). After the reaction, 50 μL of the reaction solution is added to and mixed with 100 μl of a solution of methanol/acetonitrile=1/1 (v/v), and the mixture is centrifuged for 15 minutes at 3000 rpm. The test compound in the centrifuged supernatant is quantified by LC/MS/MS, and the residual amount of the test compound after the reaction is calculated based on the compound amount at O-minute reaction set as 100%.

γ-secretase = assay: Inhibition of γ-secretase activity: CTFβ ELISA in SH-SY5Y-APPwt cells; assay type: cell-based, human; conditions: concentration 1-fold and 10-fold higher than IC50 for Aβ42 inhibition, 24 hours
Procedure: Inhibition of γ-secretase activity of the test compounds were evaluated by assessment of APP processing by γ-secretase, i.e., by measurement of a γ-secretase substrate C-terminal fragment β (CTFβ) in SH-SY5Y-APPwt cells. Cells were treated in test compound concentration 1-fold and 10-fold higher than its IC50 value for Aβ42 inhibition. CTFβ accumulated by inhibition of γ-secretase activity was quantified by an ELISA assay. SH-SY5Y-APPwt cells were generated from human SH-SY5Y neuroblast by transfection of human APP695 DNA as a stable cell-line and cultured in DMEM supplemented with 10% FCS. SHSY5Y-APPwt cells were plated at 1.0×10^6 cells/well/1 ml DMEM in 6-well plates. A solution of the test compound in DMSO was diluted with DMEM to a concentration 2-fold higher than the final concentration. 1 ml of the diluted solution was sufficiently mixed with the cell and the final DMEM solution was 2 mL/well. The final DMSO concentration was 1%. As a control compound, a γ-secretase inhibitor, DAPT (Calbiochem) was used. […] Protein concentrations in the supernatants were measured by Protein assay Kit (Pierce). The supernatants were diluted and used for CTFβ quantification by βCTF ELISA Kit (IBL) The results were shown as percentage to the CTFβ concentration of control group (added only DMSO) (% of Control), and increasing and decreasing CTFβ of the test compound was calculated. […]

T1 sequence (Q12809 whole entry): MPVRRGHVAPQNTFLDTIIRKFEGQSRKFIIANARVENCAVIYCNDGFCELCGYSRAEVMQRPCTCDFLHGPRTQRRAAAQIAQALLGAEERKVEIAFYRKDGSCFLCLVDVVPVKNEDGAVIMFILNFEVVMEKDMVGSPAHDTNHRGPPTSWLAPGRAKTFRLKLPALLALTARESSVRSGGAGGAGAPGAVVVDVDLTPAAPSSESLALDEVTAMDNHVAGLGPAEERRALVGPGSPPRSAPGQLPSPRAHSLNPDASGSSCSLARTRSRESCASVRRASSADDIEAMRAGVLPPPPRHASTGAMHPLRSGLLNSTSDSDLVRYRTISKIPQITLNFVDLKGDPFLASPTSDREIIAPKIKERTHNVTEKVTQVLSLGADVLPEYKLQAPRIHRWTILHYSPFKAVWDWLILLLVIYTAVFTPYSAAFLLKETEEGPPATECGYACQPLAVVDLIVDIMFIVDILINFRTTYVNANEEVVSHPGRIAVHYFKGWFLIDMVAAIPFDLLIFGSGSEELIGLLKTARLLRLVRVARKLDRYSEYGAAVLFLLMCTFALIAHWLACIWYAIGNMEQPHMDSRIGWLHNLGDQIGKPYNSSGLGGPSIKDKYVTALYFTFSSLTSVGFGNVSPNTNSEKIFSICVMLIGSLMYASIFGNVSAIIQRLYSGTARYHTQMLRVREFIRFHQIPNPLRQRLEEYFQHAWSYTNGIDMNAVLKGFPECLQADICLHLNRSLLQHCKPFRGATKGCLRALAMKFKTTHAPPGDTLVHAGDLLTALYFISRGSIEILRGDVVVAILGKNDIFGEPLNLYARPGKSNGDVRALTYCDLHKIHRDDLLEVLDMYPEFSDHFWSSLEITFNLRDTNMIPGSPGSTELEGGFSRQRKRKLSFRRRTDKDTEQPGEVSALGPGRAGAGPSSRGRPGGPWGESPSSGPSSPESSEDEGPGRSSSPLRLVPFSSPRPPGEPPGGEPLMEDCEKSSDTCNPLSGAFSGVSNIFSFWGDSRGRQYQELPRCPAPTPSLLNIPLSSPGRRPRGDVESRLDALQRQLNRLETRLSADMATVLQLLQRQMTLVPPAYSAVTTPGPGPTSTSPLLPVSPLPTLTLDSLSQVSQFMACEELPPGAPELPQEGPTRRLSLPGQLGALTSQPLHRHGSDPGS
Sequence of CYP3A4 (P08684 whole entry): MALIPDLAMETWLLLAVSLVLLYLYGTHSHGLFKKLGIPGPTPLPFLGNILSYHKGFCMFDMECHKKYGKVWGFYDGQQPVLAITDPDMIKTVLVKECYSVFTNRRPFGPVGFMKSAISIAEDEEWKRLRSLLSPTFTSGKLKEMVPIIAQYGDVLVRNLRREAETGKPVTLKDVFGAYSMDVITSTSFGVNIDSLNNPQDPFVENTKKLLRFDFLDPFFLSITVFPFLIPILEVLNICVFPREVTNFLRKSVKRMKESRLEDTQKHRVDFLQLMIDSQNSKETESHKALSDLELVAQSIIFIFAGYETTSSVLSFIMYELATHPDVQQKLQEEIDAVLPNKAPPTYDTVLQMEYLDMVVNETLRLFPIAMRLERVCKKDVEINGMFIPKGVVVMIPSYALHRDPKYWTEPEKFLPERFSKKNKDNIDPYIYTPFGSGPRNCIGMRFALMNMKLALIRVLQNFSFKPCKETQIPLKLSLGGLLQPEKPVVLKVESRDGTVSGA

IC50 (Aβ42 production): 900 nM
Structure (SMILES): COc1cc(NS(=O)(=O)c2ccc(Cl)c(Cl)c2)ccc1-n1cnc(C)c1 [Compound 1]
CYP3A4 MBI: difference of the IC50 values (CYP3A4): (−) (when the difference is 3 μM or lower, it is regarded as (−))

IC50 (Aβ42 production): 6600 nM
Structure (SMILES): COc1cc(NS(=O)(=O)Cc2cccc(Cl)c2)ccc1-n1cnc(C)c1 [Compound 38]

Structure (SMILES): COc1cc(NS(=O)(=O)c2ccccc2F)ccc1-n1cnc(C)c1 [Compound 69]
inhibition at 10 min (hERG channel (IKr)): 6.4%

solubility at 16 h (Solubility test): > 50 µM
Structure (SMILES): COc1cc(NS(=O)(=O)c2ccccc2[N+](=O)[O-])ccc1-n1cnc(C)c1 [Compound 74]
inhibition at 10 min (hERG channel (IKr)): 1.1%

Structure (SMILES): COc1cc(NS(=O)(=O)c2ccccc2-c2csc3ccccc23)ccc1-n1cnc(C)c1 [Compound 111]
CYP3A4 MBI: difference of the IC50 values (CYP3A4): (−) (when the difference is 3 μM or lower, it is regarded as (−))

residual amount of the test compound after the reaction (Metabolic stability test): 97.0%
Structure (SMILES): COc1cc(NS(=O)(=O)c2ccc(Cl)nc2)ccc1-n1cnc(C)c1 [Compound 113]
inhibition at 10 min (hERG channel (IKr)): 8.5%

residual amount of the test compound after the reaction (Metabolic stability test): 97.8%
Structure (SMILES): COc1cc(NS(=O)(=O)c2cccnc2Cl)ccc1-n1cnc(C)c1 [Compound 115]

solubility at 16 h (Solubility test): > 50 µM
Structure (SMILES): COc1cc(NS(=O)(=O)c2ccccc2-c2ccncc2)ccc1-n1cnc(C)c1 [Compound 178]

IC50 (Aβ42 production): 1600 nM
Structure (SMILES): COc1cc(N2Cc3ccc(-c4ccccc4Cl)cc3C2=O)ccc1-n1cnc(C)c1 [Compound 189]

IC50 (Aβ42 production): 800 nM
Structure (SMILES): COc1cc(N2CCC(NC(=O)c3cccc(Cl)c3)C2=O)ccc1-n1cnc(C)c1 (centres unmarked) [Compound 201]

IC50 (Aβ42 production): 1800 nM
Structure (SMILES): COc1cc(N2CCC(NCc3ccc(Cl)cc3)C2=O)ccc1-n1cnc(C)c1 (centres unmarked) [Compound 231]

IC50 (Aβ42 production): 700 nM
Structure (SMILES): COc1cc(N2CCC(C(c3ccccc3)c3ccccc3)C2=O)ccc1-n1cnc(C)c1 (centres unmarked) [Compound 259]

IC50 (Aβ42 production): 1100 nM
Structure (SMILES): COc1cc(NC(=O)Cc2ccc(Cl)c(Cl)c2)ccc1-n1cnc(C)c1 [Compound E8]

Structure (SMILES): C[C@H](NC(=O)Cc1cc(F)cc(F)c1)C(=O)N[C@H](C(=O)OC(C)(C)C)c1ccccc1 [DAPT]
change of CTFβ (γ-secretase): dose-dependently increased CTFβ
